Where a name gives a salt, the structure may show the parent alone. Square brackets hold non-standard residues; d marks the D form. Peptide text beside a SMILES is read from it.
Test: solubility of the fatty acid salt in water
Format: physicochemical
Details: for solubility in water: 24°C
Method: 200 mg of D-Ser^1 -Lys^17,18 -β^1-18 -corticotropin-Lys^18 -amide hexaacetate hydrate are dissolved in 24 ml of ethanol and 1.6 ml of water, and thereafter a solution of 88 mg of lauric acid in 10 ml of ethanol is added. The mixture is evaporated to dryness, the residue is dried overnight in vacuo over sodium hydroxide and is then dissolved in 25 ml of tert. butanol and 5 ml of water whilst warming, the solution is filtered and the filtrate is lyophilized. The residue is again dried in vacuo over sodium hydroxide. 265 mg of lauric acid salt are obtained as a light powder. The solubility of the product in water at 24°C is less than 0.1% (acetic acid salt > 10%).

Compound | solubility in water (in words) | other results
CSCC[C@H](NC(=O)[C@H](CO)NC(=O)[C@H](Cc1ccc(O)cc1)NC(=O)[C@H](N)CO)C(=O)N[C@@H](CCC(=O)O)C(=O)N[C@@H](Cc1c[nH]cn1)C(=O)N[C@@H](Cc1ccccc1)C(=O)N[C@@H](CCCNC(=N)N)C(=O)N[C@@H](Cc1c[nH]c2ccccc12)C(=O)NCC(=O)N[C@@H](CCCCN)C(=O)N1CCC[C@H]1C(=O)N[C@H](C(=O)NCC(=O)N[C@@H](CCCCN)C(=O)N[C@@H](CCCCN)C(=O)N[C@@H](CCCCN)C(=O)N[C@@H](CCCCN)C(N)=O)C(C)C [Example 1, D-Ser^1 -Lys^17,18 -β^1-18-corticotropin-Lys^18-amide] |  | solubility in water: less than 0.1%
CSCC[C@H](NC(=O)[C@H](CO)NC(=O)[C@H](Cc1ccc(O)cc1)NC(=O)[C@H](N)CO)C(=O)N[C@@H](CCC(=O)O)C(=O)N[C@@H](Cc1c[nH]cn1)C(=O)N[C@@H](Cc1ccccc1)C(=O)N[C@@H](CCCNC(=N)N)C(=O)N[C@@H](Cc1c[nH]c2ccccc12)C(=O)NCC(=O)N[C@@H](CCCCN)C(=O)N1CCC[C@H]1C(=O)N[C@H](C(=O)NCC(=O)N[C@@H](CCCCN)C(=O)N[C@@H](CCCCN)C(=O)N[C@@H](CCCCN)C(=O)N[C@@H](CCCCN)C(N)=O)C(C)C [Example 4, D-Ser^1 -Lys^17,18 -β^1-18-corticotropin-Lys^18-amide] | water-insoluble | 
CSCC[C@H](NC(=O)[C@H](CO)NC(=O)[C@H](Cc1ccc(O)cc1)NC(=O)[C@H](N)CO)C(=O)N[C@@H](CCC(=O)O)C(=O)N[C@@H](Cc1c[nH]cn1)C(=O)N[C@@H](Cc1ccccc1)C(=O)N[C@@H](CCCNC(=N)N)C(=O)N[C@@H](Cc1c[nH]c2ccccc12)C(=O)NCC(=O)N[C@@H](CCCCN)C(=O)N1CCC[C@H]1C(=O)N[C@H](C(=O)NCC(=O)N[C@@H](CCCCN)C(=O)N[C@@H](CCCCN)C(=O)N[C@@H](CCCCN)C(=O)N[C@@H](CCCCN)C(=O)N1CCC[C@H]1C(=O)O)C(C)C [Example 6, D-Ser^1 -Lys^17,18 -β^1-19-corticotropin] | sparingly soluble in water | 
CSCC[C@H](NC(=O)CNC(=O)[C@H](Cc1ccc(O)cc1)NC(=O)[C@H](N)CO)C(=O)N[C@@H](CCC(=O)O)C(=O)N[C@@H](Cc1c[nH]cn1)C(=O)N[C@@H](Cc1ccccc1)C(=O)N[C@@H](CCCNC(=N)N)C(=O)N[C@@H](Cc1c[nH]c2ccccc12)C(=O)NCC(=O)N[C@@H](CCCCN)C(=O)N1CCC[C@H]1C(=O)N[C@H](C(=O)NCC(=O)N[C@@H](CCCCN)C(=O)N[C@@H](CCCCN)C(=O)N[C@@H](CCCCN)C(=O)N[C@@H](CCCCN)C(N)=O)C(C)C [Example 8, D-Ser^1 -Gly^3 -Lys^17,18 -β^1-18-corticotropin-Lys^18-amide] (H-[dS]YGMEHFRWGKPVGKKKK-NH2) | practically insoluble in water | 
CSCC[C@H](NC(=O)[C@H](CO)NC(=O)[C@H](Cc1ccc(O)cc1)NC(=O)[C@H](N)CO)C(=O)N[C@@H](CCC(=O)O)C(=O)N[C@@H](Cc1c[nH]cn1)C(=O)N[C@@H](Cc1ccccc1)C(=O)N[C@@H](CCCNC(=N)N)C(=O)N[C@@H](Cc1c[nH]c2ccccc12)C(=O)NCC(=O)N[C@@H](CCCCN)C(=O)N1CCC[C@H]1C(=O)N[C@H](C(=O)NCC(=O)N[C@@H](CCCCN)C(=O)N[C@@H](CCCCN)C(=O)N[C@@H](CCCCN)C(=O)N[C@@H](CCCCN)C(N)=O)C(C)C [acetic acid salt, D-Ser^1 -Lys^17,18 -β^1-18-corticotropin-Lys^18-amide hexaacetate hydrate, reference compound] |  | solubility in water (hydrate): > 10%
D-Ser^1 -Gly^3 -Lys^17,18 -corticotropin-Lys^18 -amide [Example 9] | cannot be dissolved in water | 

— US3954975A, “Salts of ACTH-peptides and processes for their manufacture” (Ciba-Geigy Corporation, priority 1972, dated 1976)
